# From patent US9272980B2, “Anticancer agent” (KTN BioTec, Inc., priority 2014, dated 2016)
# Key:
# [1] = test system: human prostate cancer cell lines (DU145, LNCap, and PC-3 cells); test: MTT cell viability assay, prostate cancer cell lines; format: cell-based; details: 1-100 μM, 24 hr
# Excerpt: (§1) The following cell lines treated or not treated with a given concentration of HUHS1015 for 24 hr were subjected to MTT assay. (A) lung cancer cell line (B) liver cancer cell line (C) gastric cancer cell line (D) bladder cancer cell line (E) prostate cancer cell line (F) kidney cancer cell line. […] As a control, MTT intensity of the cells not treated with HUHS1015 was used.
# DU145 cells, LNCap cells and PC-3 cells were used as human prostate cancer cell lines. These cells were purchased from American Type Culture Collection. The DU145 cells were cultured in DMEM. The LNCaP and PC-3 cells were cultured in RPMI-1640 medium.
# (§2) In all cultures, the medium was supplied with 10% (v/v) heat inactivated bovine serum, penicillin (final concentration 100 U/ml) and streptomycin (final concentration 0.1 mg/ml), and culture was performed at 37° C. under humidification atmosphere of 5% CO2 and 95% air.
# (§3) The cell viability was measured by a method using MTT (3-(4,5-dimethyl-2-thiazolyl)-2,5-diphenyl-2H-tetrazolium bromide) in the same manner as in a published report (Cell Physiol Biochem 2012; 30: 61-74).
# [2] = test system: human bladder cancer cell lines (253J, 5637, KK-47, TCCSUP, T24, and UM-UC-3 cells); test: MTT cell viability assay, bladder cancer cell lines; format: cell-based; details: T24, UM-UC-3 cells, 1-100 μM, 24 hr
# Excerpt: as §1
# 253J cells, 5637 cells, KK-47 cells, TCCSUP cells, T24 cells and UM-UC-3 cells were used as human bladder cancer cell lines.
# KK-47 cells were provided by Dr. Naito (Department of Urology, Kyushu University, Fukuoka, Japan). 253J cells, 5637 cells, TCCSUP cells, T24 cells and UM-UC-3 cells were purchased from American Type Culture Collection (Manassas, Va., USA). All cells were cultured in RPMI-1640 medium.
# as §2, §3
# [3] = test system: human kidney cancer cell lines (ACHN, RCC4-VHL, and 786-O cells); test: MTT cell viability assay, kidney cancer cell lines; format: cell-based; details: 1-100 μM, 24 hr
# Excerpt: as §1
# ACHN cells, RCC4-VHL cells and 786-O cells were used as human kidney cancer cell lines. These cells were purchased from European Collection of Animal Cell Cultures (ECACC; Salisbury, UK), and cultured in DMEM.
# as §2, §3
# [4] = test system: human malignant pleural mesothelioma cell lines (NCI-H28, NCI-H2052, NCI-H2452 and MSTO-211H cells); test: MTT cell viability assay, malignant mesothelioma cell lines; format: cell-based; details: 24 hr
# Excerpt: Cancer cells (NCI-H28, NCI-H2052, NCI-H2452 and MSTO-211H) treated or not treated with a given concentration of each test compound for 24 hr were subjected to MTT assay. […] As a control, MTT intensity of the cells not treated with any of naftopidil and the aryloxy derivative of the present invention was used.
# NCI-H28, NCI-H2052, NCI-H2452 and MSTO-211H cells were used as human malignant pleural mesothelioma cell lines. These cells were purchased from American Type Culture Collection (Manassas, Va., USA). The cells were cultured in RPMI (Roswell Park Memorial Institute)-1640 medium added with 0.003% (W/V) L-glutamine.
# as §2, §3
# [5] = test system: human gastric cancer cell lines (MKN-28 and MKN-45 cells); test: MTT cell viability assay, gastric cancer cell lines; format: cell-based; details: MKN-28, MKN-45 cells, 1-100 μM, 24 hr
# Excerpt: as §1
# MKN-28 cells and MKN-45 cells were used as human gastric cancer cell lines. These cells were obtained from Dr. Tatematsu (Nagoya University, Japan) and cultured in RPMI-1640 medium.
# as §2, §3
# [6] = test system: MKN45 gastric cancer cells; test: Growth of subcutaneously inoculated MKN45 gastric cancer cells in nude mouse; format: in vivo; details: nude BALB/c-nu/nu mouse, MKN45 subcutaneous, 0.23 mg/mouse 25 μM intraperitoneal twice per week, day 33
# Procedure: MKN45 gastric cancer cells were subcutaneously inoculated into the flank of mouse, and 1 week later (day 0), 25 μM of HUHS1015 and 25 μM of naftopidil were intraperitoneally administered (twice/1 week). As a control, a mouse administered with saline was used. The time-course changes (A) of the tumor volume (mean±SEM, n=7) and the results (B) of tumor weight (mean±SEM, n=7) after the lapse of 33 days are shown. P value, Dunnett's test. NS, not significant
# Nude BALB/c-nu/nu mouse (male, 6 week-old) was purchased from Japan SLC, Inc. (Shizuoka, Japan). MKN45 cells (1×10^7 cells) were suspended in a culture medium (200 μl) containing Matrigel (BD Biosciences, San Jose, Calif., USA) and subcutaneously inoculated to the flank of the mouse under general anesthesia with pentobarbital. HUHS1015 (0.23 mg/mouse 25 μM) or naftopidil (0.25 mg/mouse 25 μM) was diluted with saline. At 1 week (Day 0) after inoculation, intraperitoneal administration of saline, HUHS1015 or naftopidil twice per week was started. The longitudinal length (L) and transverse length (S) of the inoculated tumor were measured with calipers, and the tumor volume (V) was calculated from the following formula: V=L×S^2×1/2 The mouse was sacrificed on day 33, the tumor was isolated and the weight thereof was measured.
# [7] = test system: human lung cancer cell lines (A549, SBC-3, and Lu-65 cells); test: MTT cell viability assay, lung cancer cell lines; format: cell-based; details: A549, SBC-3, Lu-65 cells, 1-100 μM, 24 hr
# Excerpt: as §1
# A549, SBC-3 and Lu-65 cells were used as human lung cancer cell lines. These cells were purchased from Health Science Research Resources Bank (Osaka, Japan). A549 cells and SBC-3 cells were cultured in MEM (minimum essential medium) added with 0.1 mM non-essential amino acid, and Lu-65 cells were cultured in RPMI-1640 medium.
# as §2, §3
# [8] = test system: human liver cancer cell lines (HepG2 and HuH-7 cells); test: MTT cell viability assay, liver cancer cell lines; format: cell-based; details: HepG2, HuH-7 cells, 1-100 μM, 24 hr
# Excerpt: as §1
# HepG2 cells and HuH-7 cells were used as human […] cancer cell lines. These cells were obtained from RIKEN cell bank (Ibaraki, Japan) and cultured in DMEM (Dulbecco's Modified Eagles Medium).
# as §2, §3
# [9] = malignant mesothelioma cell lines, 1-100 μM
structure (smiles),measurement,setting,value
"COc1ccccc1NCCNCC(O)COc1cccc2ccccc12 (stereo not shown) [HUHS1015, 1-((2-((2-methoxyphenyl)amino)ethyl)amino)-3-(1-naphthyloxy)propan-2-ol]",cell viability (MTT),[1],reduced the cell viability in a concentration dependent manner
same,cell viability (MTT),[2],reduced the cell viability in a concentration dependent manner
same,cell viability (MTT),[3],reduced the cell viability in a concentration dependent manner
same,activity in reducing cell viability (MTT),[4]; [9],high activity
same,cell viability (MTT),[5],reduced the cell viability in a concentration dependent manner
same,"antitumor effect on gastric cancer (tumor volume, tumor weight)",[6],superior to naftopidil
same,cell viability (MTT),[7],reduced the cell viability in a concentration dependent manner
same,cell viability (MTT),[8],reduced the cell viability in a concentration dependent manner
"OC(COc1cccc2ccccc12)CN1CCN(c2ccccc2Cl)CC1 (stereo not shown) [HUHS1014, 1-(4-(2-chlorophenyl)piperazinyl)-3-(1-naphthyloxy)-propan-2-ol]",activity in reducing cell viability (MTT),[4]; [9],high activity
"COc1cccc(N2CCN(CC(O)COc3cccc4ccccc34)CC2)c1 (stereo not shown) [HUHS1002, 1-(4-(3-methoxyphenyl)piperazinyl)-3-(1-naphthyloxyl)propan-2-ol, reference compound]",activity in reducing cell viability (MTT),[4]; [9],high activity
"OC(COc1cccc2ccccc12)CN1CCN(c2ccccc2)CC1 (stereo not shown) [HUHS1004, 3-(1-naphthyloxy)-1-(4-phenylpiperazinyl)propan-2-ol]",activity in reducing cell viability (MTT),[4]; [9],high activity
"COc1ccccc1C1CCN(CC(O)COc2cccc3ccccc23)CC1 (stereo not shown) [HUHS1017, 1-(4-(2-methoxyphenyl)piperidin-1-yl)-3-(1-naphthyloxyl)propan-2-ol]",activity in reducing cell viability (MTT),[4]; [9],high activity
"CCCCCCCCN1CCN(CC(O)COc2cccc3ccccc23)CC1 (stereo not shown) [HUHS1019, 3-(1-naphthyloxy)-1-(4-octylpiperazinyl)propan-2-ol]",activity in reducing cell viability (MTT),[4]; [9],high activity
"COc1ccccc1N1CCN(CC(O)COc2cccc3ccccc23)CC1 (racemic) [naftopidil, (±)-1-[4-(2-methoxyphenyl)piperazinyl]-3-(1-naphthyloxy)propan-2-ol, reference compound]",cell viability (MTT),"[4]; all examined malignant mesothelioma cell lines, 1-100 μM",reduced the cell viability in a concentration dependent manner
same,cell viability (MTT),"[4]; malignant mesothelioma cell lines, concentration of 100 µM, % control",~0%
"CCCCCCCN1CCN(CC(O)COc2cccc3ccccc23)CC1 (stereo not shown) [HUHS1018, 1-(4-heptylpiperazinyl)-3-(1-naphthyloxyl)propan-2-ol]",activity in reducing cell viability (MTT),[4]; [9],high activity
